# Assay results published in patent US6455540B1, “Methods of use of quinolone compounds against anaerobic pathogenic bacteria” (priority 1999, dated 2002).
# Experiments:
# Assay in all cases: Agar dilution MIC
# [1] = test system: Actinomyces odontolyticus; assay type: cell-based; details: Schaalia odontolytica, 10 isolates
# [2] = test system: Actinomyces israelii; assay type: cell-based; details: 6 isolates
# [3] = test system: Anaerobiospirillum thomasii; assay type: cell-based; details: 13 isolates
# [4] = test system: Anaerobiospirillum succiniciproducens; assay type: cell-based; details: 3 isolates
# [5] = test system: Bacteroides gracilis; assay type: cell-based, Bacteroides gracilis (Campylobacter gracilis); details: Campylobacter gracilis, 11 isolates
# [6] = test system: Bacteroides tectum; assay type: cell-based; details: 22 isolates
# [7] = test system: Bacteroides ureolyticus; assay type: cell-based; details: Campylobacter ureolyticus, 17 isolates
# [8] = test system: Bilophila wadsworthia; assay type: cell-based; details: 16 isolates, agar supplemented with pyruvate
# [9] = test system: Clostridium clostridioforme; assay type: cell-based; details: Clostridium, 11 isolates
# [10] = test system: Clostridium dfficile; assay type: cell-based, Clostridium difficile; details: Clostridium
# [11] = test system: Clostridium inocuum; assay type: cell-based, Clostridium innocuum; details: Clostridium, 11 isolates
# [12] = test system: Clostridium ramosum; assay type: cell-based; details: Thomasclavelia ramosa, 10 isolates
# [13] = test system: Fusobacterium spp group 1; assay type: cell-based; details: Fusobacterium, 19 isolates
# [14] = test system: Fusobacterium spp. group 2; assay type: cell-based, Fusobacterium mortiferum, necrogenes, ulcerans; details: Fusobacterium, 12 isolates
# [15] = test system: Fusobacterium russii; assay type: cell-based; details: Fusobacterium russii
# [16] = test system: Fusobacterium varium; assay type: cell-based; details: Fusobacterium varium, 17 isolates
# [17] = test system: Peptostreptococcus asaccharolyticus; assay type: cell-based; details: Peptoniphilus asaccharolyticus, 11 isolates
# [18] = test system: Peptostreptococcus magnus; assay type: cell-based; details: Finegoldia magna, 13 isolates
# [19] = test system: Peptostreptococcus micros; assay type: cell-based; details: 12 isolates
# [20] = test system: Peptostreptococcus prevotii; assay type: cell-based; details: Anaerococcus prevotii, read-out: Minimal Inhibitory Concentration 50% (MIC50); 9 isolates
# [21] = test system: Porphyromonas asaccharolyticus; assay type: cell-based, Porphyromonas asaccharolytica; details: 11 isolates
# [22] = test system: Porphyromonas canoris; assay type: cell-based; details: 10 isolates
# [23] = test system: Porphyromonas gingivalis; assay type: cell-based; details: 13 isolates
# [24] = test system: Porphyromonas macaccae; assay type: cell-based; details: 13 isolates
# [25] = test system: Porphyromonas spp.; assay type: cell-based, Porphyromonas cangingivalis, cansulci, circumdentaria, levii; details: Porphyromonas, 11 isolates
# [26] = test system: Prevotella bivia; assay type: cell-based; details: Prevotella bivia, 21 isolates
# [27] = test system: Prevotella buccae-oris group; assay type: cell-based; details: 22 isolates
# [28] = test system: Prevotella heparinolytica; assay type: cell-based; details: 16 isolates
# [29] = test system: Prevotella intermedia; assay type: cell-based; details: 11 isolates
# [30] = test system: Prevotella melaninogenica; assay type: cell-based; details: 12 isolates
# [31] = test system: Prevotella denticola/loeschii group; assay type: cell-based; details: Prevotella denticola, read-out: Minimal Inhibitory Concentration 50% (MIC50); 6 isolates
# [32] = test system: Veillonella spp.; assay type: cell-based; details: Veillonella, 24 isolates
# [33] = read-out: Minimal Inhibitory Concentration 90% (MIC90)
# [34] = read-out: Minimal Inhibitory Concentration 50% (MIC50)
# [35] = Porphyromonas, read-out: Minimal Inhibitory Concentration 50% (MIC50)
# [36] = Porphyromonas, read-out: Minimal Inhibitory Concentration 90% (MIC90)
smiles,measurement,setting,value
CC[C@H]1OC(=O)[C@H](C)[C@@H](O[C@H]2C[C@@](C)(OC)[C@@H](O)[C@H](C)O2)[C@H](C)[C@@H](O[C@@H]2O[C@H](C)C[C@H](N(C)C)[C@H]2O)[C@](C)(O)C[C@@H](C)C(=O)[C@H](C)[C@@H](O)[C@]1(C)O [Erythromycin],MIC90,[1]; [33],0.03 µg/mL
same,MIC50,[1]; [34],≤ 0.015 µg/mL
same,Minimal Inhibitory Concentration Range,[2],0.03 µg/mL
same,MIC50,"[2]; Actinomyces israelii, read-out: Minimal Inhibitory Concentration 50% (MIC50)",0.03 µg/mL
same,Minimal Inhibitory Concentration Range,[3],1 to 16 µg/mL
same,MIC50,"[3]; Anaerobiospirillum thomasii, read-out: Minimal Inhibitory Concentration 50% (MIC50)",4 µg/mL
same,MIC90,"[3]; Anaerobiospirillum thomasii, read-out: Minimal Inhibitory Concentration 90% (MIC90)",8 µg/mL
same,Minimal Inhibitory Concentration Range,[4],8 to 16 µg/mL
same,MIC50,"[4]; Anaerobiospirillum succiniciproducens, read-out: Minimal Inhibitory Concentration 50% (MIC50)",16 µg/mL
same,MIC90,[5]; [33],2 µg/mL
same,MIC50,[5]; [34],1 µg/mL
same,Minimal Inhibitory Concentration Range,[6],0.25 to 1 µg/mL
same,MIC90,"[6]; Bacteroides pyogenes, read-out: Minimal Inhibitory Concentration 90% (MIC90)",0.5 µg/mL
same,MIC50,"[6]; Bacteroides pyogenes, read-out: Minimal Inhibitory Concentration 50% (MIC50)",0.5 µg/mL
same,MIC90,[7]; [33],2 µg/mL
same,MIC50,[7]; [34],0.025 µg/mL
same,Minimal Inhibitory Concentration Range,[8],4 to 32 µg/mL
same,MIC90,"[8]; Bilophila wadsworthia, read-out: Minimal Inhibitory Concentration 90% (MIC90)",32 µg/mL
same,MIC50,"[8]; Bilophila wadsworthia, read-out: Minimal Inhibitory Concentration 50% (MIC50)",16 µg/mL
same,MIC90,[9]; [33],> 32 µg/mL
same,MIC50,[9]; [34],16 µg/mL
same,MIC50,[10]; [34],0.5 µg/mL
same,MIC90,"[10]; read-out: Minimal Inhibitory Concentration 90% (MIC90), 14 isolates",> 32 µg/mL
same,MIC90,[11]; [33],> 32 µg/mL
same,MIC50,[11]; [34],> 32 µg/mL
same,MIC50,[12]; [34],1 µg/mL
same,MIC90,[12]; [33],> 32 µg/mL
same,MIC50,"[13]; GROUP1, read-out: Minimal Inhibitory Concentration 50% (MIC50)",8 µg/mL
same,MIC90,"[13]; GROUP1, read-out: Minimal Inhibitory Concentration 90% (MIC90)",32 µg/mL
same,MIC50,[14]; [34],> 32 µg/mL
same,MIC90,[14]; [33],> 32 µg/mL
same,MIC50,[15]; [34],4 µg/mL
same,MIC90,[15]; [33],> 32 µg/mL
same,MIC50,[16]; [34],> 32 µg/mL
same,MIC90,[16]; [33],> 32 µg/mL
same,MIC50,[17]; [34],4 µg/mL
same,MIC90,[17]; [33],> 32 µg/mL
same,MIC50,[18]; [34],4 µg/mL
same,MIC90,[18]; [33],> 32 µg/mL
same,Minimal Inhibitory Concentration Range,[19],0.5 to 1 µg/mL
same,MIC50,"[19]; Parvimonas micra, read-out: Minimal Inhibitory Concentration 50% (MIC50)",0.5 µg/mL
same,MIC90,"[19]; Parvimonas micra, read-out: Minimal Inhibitory Concentration 90% (MIC90)",0.5 µg/mL
same,MIC50,[20],> 32 µg/mL
same,Minimal Inhibitory Concentration Range,[21],0.03 to 32 µg/mL
same,MIC50,[21]; [35],0.03 µg/mL
same,MIC90,[21]; [36],32 µg/mL
same,Minimal Inhibitory Concentration Range,[22],0.03 to 0.25 µg/mL
same,MIC50,"[22]; Porphyromonas canoris, read-out: Minimal Inhibitory Concentration 50% (MIC50)",0.06 µg/mL
same,MIC90,"[22]; Porphyromonas canoris, read-out: Minimal Inhibitory Concentration 90% (MIC90)",0.125 µg/mL
same,Minimal Inhibitory Concentration Range,[23],0.06 to 0.5 µg/mL
same,MIC50,"[23]; Porphyromonas gingivalis, read-out: Minimal Inhibitory Concentration 50% (MIC50)",0.125 µg/mL
same,MIC90,"[23]; Porphyromonas gingivalis, read-out: Minimal Inhibitory Concentration 90% (MIC90)",0.5 µg/mL
same,Minimal Inhibitory Concentration Range,[24],0.06 to 0.25 µg/mL
same,MIC50,[24]; [35],0.125 µg/mL
same,MIC90,[24]; [36],0.25 µg/mL
same,MIC50,[25]; [34],0.06 µg/mL
same,MIC90,[25]; [33],0.06 µg/mL
same,MIC90,[26]; [33],2 µg/mL
same,MIC50,[26]; [34],1 µg/mL
same,Minimal Inhibitory Concentration Range,[27],0.5 to 8 µg/mL
same,MIC90,"[27]; Prevotella, read-out: Minimal Inhibitory Concentration 90% (MIC90)",2 µg/mL
same,MIC50,"[27]; Prevotella, read-out: Minimal Inhibitory Concentration 50% (MIC50)",1 µg/mL
same,Minimal Inhibitory Concentration Range,[28],0.25 to 0.5 µg/mL
same,MIC90,"[28]; Prevotella heparinolytica, read-out: Minimal Inhibitory Concentration 90% (MIC90)",0.25 µg/mL
same,MIC50,"[28]; Prevotella heparinolytica, read-out: Minimal Inhibitory Concentration 50% (MIC50)",0.25 µg/mL
same,Minimal Inhibitory Concentration Range,[29],0.03 to 0.5 µg/mL
same,MIC90,"[29]; Prevotella intermedia, read-out: Minimal Inhibitory Concentration 90% (MIC90)",0.25 µg/mL
same,MIC50,"[29]; Prevotella intermedia, read-out: Minimal Inhibitory Concentration 50% (MIC50)",0.06 µg/mL
same,Minimal Inhibitory Concentration Range,[30],0.06 to 32 µg/mL
same,MIC90,"[30]; Prevotella melaninogenica, read-out: Minimal Inhibitory Concentration 90% (MIC90)",8 µg/mL
same,MIC50,"[30]; Prevotella melaninogenica, read-out: Minimal Inhibitory Concentration 50% (MIC50)",1 µg/mL
same,MIC50,[31],0.25 µg/mL
same,MIC90,[32]; [33],> 32 µg/mL
same,MIC50,[32]; [34],16 µg/mL
